From patent US20190298775A1, “LIVER ORGANOID COMPOSITIONS AND METHODS OF MAKING AND USING SAME” (Children's Hospital Medical Center, priority 2016, published 2019)
Read-outs that look alike come from different tables or passages of the source.

How the values were obtained:
[1] = system: bile transport activity in liver organoids
Experimental: To determine if FD can be used for live assessment of transport capacity without exchanging the medium and adjusting exposure, chronological hepatobiliary transport activity was further investigated with time-lapse imaging. […] The opposite directionality of this transport flow was determined by the micro-injection of FD into organoids.
To quantify the inhibitory potential for FD excretion, Applicant developed a simple but robust quantification method by determining the fluorescent intensity ratio between outside and inside the organoid by image J (FIG. 4, panel B).
Fluorescein diacetate was used for evaluating bile transport activity in organoids. Around Day 25, the organoids were rinsed with PBS, and, fluorescein diacetate was treated to organoids in medium. In addition, to investigate the direction of transport, fluorescein diacetate was injected to organoids using by Nanoject III (Drummond Scientific). After treatment or injection of fluorescein diacetate, images were captured on fluorescent microscopy BZ-X710 (Keyence). […] Changes in brightness or contrast during processing were applied equally across the entire image.

[2] = system: human liver organoids; details: for organoid viability / cell viability: human; for organoid viability: 130 μM; for cell viability: 50 μM
[3] = system: lipotoxic organoid model; test: Viability in organoids on vulnerable (lipotoxic, oleic acid) condition; assay type: cell-based, human
Experimental: Next, 50 μM of Troglitazone was treated with or without 50 μM NAC for 24h. […] Images were captured sequentially using fluorescent microscopy BZ-9000.

[4] = system: human iPSC-derived liver organoids; test: Albumin secretion of organoids (ELISA); assay type: cell-based
Experimental: On Day 7-8, definitive endoderm organoids with plated cells were gently pipetted to delaminate from dishes. Isolated spheroids were centrifuged at 800 rpm for 3 minutes and, after removing supernatant, embedded in 100% matrigel drop on the dishes. The plates were placed at 37° C. in an atmosphere of 5% CO2/95% air for 5-15 min. After the Matrigel was solidified, Advanced DMEM/F12 was added with B27, N2 and Retinoic acid (RA; Sigma, St. Louis, Mo.) 2 μM for 1-5 days. The media was replaced every other day. After RA treatment, organoids embedded in Matrigel drop were cultured in Hepatocyte culture medium (HCM Lonza, Walkersville, Md.) with 10 ng/mL hepatocyte growth factor (HGF; PeproTech, Rocky Hill, N.J.), 0.1 μM Dexamethasone (Dex; Sigma) and 20 ng/mL Oncostatin M (OSM; R&D Systems). Cultures for cell differentiation were maintained at 37° C. in an atmosphere of 5% CO2/95% air and the medium was replaced every 3 days. Around Day 20-30, organoids embedded in Matrigel drop were isolated by scratching and gentle pipetting for any analyses.
For measuring albumin, fibrinogen and complement factors secreted level of organoids, 200 μL of culture supernatant of organoids on Ultra-Low attachment 96 well plates (Corning) were collected. The culture supernatants were collected and stored at −80° C. until use. The supernatant was assayed with Human Albumin ELISA Quantitation Set (Bethyl Laboratories, Inc., TX, USA) and fibrinogen (Thermo Fisher Scientific) according to the manufacturer's instructions. For analyzing complement factors, supernatants were measured with Luminex System (Luminex Corporation, Austin, Tex.) according to the manufacturer's instructions. To calculate albumin production per the number of cells, the linear regression equation of cell numbers by diameter of an organoid was used. For measuring total bile acid secreted level intra-luminal organoids, fluid inside organoids was absorbed using microinjection Nanoject II (Drummond Scientific, Broomall, Pa., USA). Fluid absorbed was dilute in PBS and assayed with Total Bile Acid ELISA Kit (Antibodies-online, Inc., GA, USA). To calculate the volume of total bile acid, the number of cells in organoid was calculated using the linear regression equation in the same manner for albumin production and the molecular weight of cholic acid was used for calculation and comparing with volume in previous report.

[5] = system: liver organoids; test: Lipid accumulation in organoids after oleic acid (BODIPY live staining); assay type: cell-based, human; details: 3 days after oleic acid treatment
Experimental: Images were captured sequentially using fluorescent microscopy BZ-9000. […] The following regents or kits were used: BODIPY® 493/503 for lipids (Thermo Fisher Scientific), and SiR Actin Kit for cytoskeleton (USA Scientific, FL, USA), CellROX® Green Reagent for ROS (Fisher Scientific), TMRM (Thermo Fisher Scientific) for mitochondria. […] ROS production, mitochondria size and number were analyzed by IMARIS 8.

With `COc1ccccc1Oc1c(NS(=O)(=O)c2ccc(C(C)(C)C)cc2)nc(-c2ncccn2)nc1OCCO` [Bosentan] the “efflux of FD (bile transport inhibition)” value [1] was “significantly decreased”.
Compound `CCN(CC)C(=O)/C(C#N)=C/c1cc(O)c(O)c([N+](=O)[O-])c1` [Entacapone] has an organoid viability ([2]; 24 h) of 85% and an organoid viability ([2]; 72 h) of 64%.
For `CC(=O)N[C@@H](CS)C(=O)O` [NAC, N-acetylcysteine], the “cell viability with NAC (rescue from Troglitazone toxicity)” value ([3]; lipotoxic condition, 50 μM Troglitazone with 50 μM NAC, 24h) was “significantly improved”.
For `CCc1nn(CCCN2CCN(c3cccc(Cl)c3)CC2)c(=O)n1CCOc1ccccc1` [Nefazodone], the “efflux of FD (bile transport inhibition)” value [1] was “significantly decreased” and the “cell viability at 72 hours relative to TOL, DICLO and BOS” value [2] was “significantly lowered”.
`CC1=C(/C=C/C(C)=C/C=C/C(C)=C/C(=O)O)C(C)(C)CCC1` [RA, retinoic acid] was tested, and the “albumin secretion level of organoids at D25” value (from here on “albumin secretion level”) ([4]; 1 day of RA treatment) was 1160 ng/mL, the “albumin secretion level” value ([4]; 2 days of RA treatment) was 1054 ng/mL and the “albumin secretion level” value ([4]; 3 days of RA treatment) was 3092 ng/mL. For the same compound, the “albumin secretion level” value ([4]; 4 days of RA treatment) was 4709 ng/mL and the “albumin secretion level” value ([4]; 5 days of RA treatment) was 3865 ng/mL.
For `CN(CCOc1ccc(CC2SC(=O)NC2=O)cc1)c1ccccn1` (stereo not shown) [Rosiglitazone], the “toxicity in steatotic organoids” value [3] was “vulnerable”.
For `Cc1c(C)c2c(c(C)c1O)CCC(C)(COc1ccc(CC3SC(=O)NC3=O)cc1)O2` (stereo not shown) [Troglitazone], the “efflux of FD (bile transport inhibition)” value [1] was “significantly decreased”, the “cell viability compared to control” value ([3]; lipotoxic condition (800 μM oleic acid 3 days), 50 μM for 24h, p<0.05) was −40% and the “organoid morphology on lipotoxic condition” value ([3]; lipotoxic condition, 24h) was “massive fragmentation of organoids”. For the same compound, the “cell viability at 72 hours relative to TOL, DICLO and BOS” value [2] was “significantly lowered”, the cell viability ([2]; 24 h) was 85% and the cell viability ([2]; 72 h) was 67%.
For `CCCCCCCC/C=C\CCCCCCCC(=O)O` [oleic acid], the “lipid accumulation in organoids” value [5] was “intense”.
